From patent publication US8729020B2, “Methods for the treatment of aortic fibrosis with VIP fragments” (Vectus Biosystems Pty Ltd, priority 2009, dated 2014)

Tested on: Male SHR rats on 2.2% salt diet
Experiment: Effect of VIP/VIP fragment infusion on aortic fibrosis in rat model of fibrosis
Assay type: in vivo
Settings: 4 weeks intravenous infusion at 5 pmol/kg/min by osmotic minipump, vs vehicle control, fibrosis quantified as percent surface area
Description: Two animal models of aortic fibrosis were used (animals obtained from Australian Animal Resources, Perth, Western Australia, Australia)
i) Male SHR rats on 2.2% salt diet
In each model the rats were randomised to VIP (1-28), VIP (4-12), VIP (4-16), VIP (4-10), VIP (4-20), VIP (4-24), VIP (10-28), VIP (16-20), VIP (16-24), VIP (16-28), VIP (6-10), VIP (6-12), VIP (6-16), VIP (6-20), VIP (6-24), and VIP (6-28). All peptides were obtained from or synthesised by Auspep, Australia. VIP fragments were dissolved in Hartman's solution for subsequent infusion studies. Commencing at 12 weeks of age, the rats were acclimatized to tail cuff blood pressure measurements and handling for 2 weeks. They then underwent operative insertion of an osmotic minipump (Alzet) which was designed to deliver vehicle alone (Hartman's solution, (Baxter Health Care Corporation)-(Controls)) or VIP, VIP fragment at a dose of 5 pmol/kg/min intravenously.
The infusion was continued for 4 weeks, during which the rats were weighed and their blood pressures measured twice weekly. […]
For quantitation of aortic fibrosis, twenty fields from each aorta were digitized and the amount of fibrosis in each determined as percent surface area using Image-Pro Plus V5.0 software. The mean value for each rat and subsequently for each infusion group was then determined.

His-Ser-Asp-Ala-Val-Phe-Thr-Asp-Asn-Tyr-Thr-Arg-Leu-Arg-Lys-Gln-Met-Ala-Val-Lys-Lys-Tyr-Leu-Asn-Ser-Ile-Leu-Asn (HSDAVFTDNYTRLRKQMAVKKYLNSILN; listed as Homo sapiens) [VIP]
aortic fibrosis (fibrosis within the aortic wall): reductions in aortic fibrosis
